Measurements from ChEMBL document CHEMBL1201862, “PubChem BioAssay data set” (2004).
The source made the active and inactive calls.

Experiments:
[1] = target: Lysosomal acid glucosylceramidase (Homo sapiens, UniProt P04062); assay: Dose response cell-based high throughput screening assay to identify enhancers of beta-glucosidase activity. [Related pubchem assays: 784 ]; format: functional
[2] = target: Peroxisome proliferator-activated receptor gamma (Homo sapiens, UniProt P37231); assay: competitive ligand displacement at PPARg – biochemical, TR-FRET, LanthaScreen, PPARg partial agonist project, dose response (AID 504446)
[3] = target: Acyl-homoserine lactone acylase PvdQ (Pseudomonas aeruginosa (strain LESB58), UniProt Q9I194); assay: PvdQ acylase enzyme activity blockers – biochemical, fluorescence, plate reader and imaging, cherry-picks, dose response (AID 493231)
Streptococcus [4] = assay: Luminescence Microorganism-Based Dose Response Follow up to Identify Compounds Cytotoxic to Streptococcus. [Related pubchem assays: 1677 (Project Summary), 1915, 1914, 1902 (Retest at Dose), 1900 (Counter Screen), 1662 (Primary HTS)]; format: functional, organism-based
Streptokinase A = target: T1, Streptokinase A (Streptococcus pyogenes serotype M1, UniProt P10520); assay: viability-normalized secreted streptokinase activity reduction – plasminogen activation absorbance, OD405, dose response (AID 1914); format: functional, Streptococcus pyogenes M1 GAS;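 note: secreted streptokinase activity via plasminogen activation per viability signal from cell pellet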
T1 sequence (P10520 whole entry): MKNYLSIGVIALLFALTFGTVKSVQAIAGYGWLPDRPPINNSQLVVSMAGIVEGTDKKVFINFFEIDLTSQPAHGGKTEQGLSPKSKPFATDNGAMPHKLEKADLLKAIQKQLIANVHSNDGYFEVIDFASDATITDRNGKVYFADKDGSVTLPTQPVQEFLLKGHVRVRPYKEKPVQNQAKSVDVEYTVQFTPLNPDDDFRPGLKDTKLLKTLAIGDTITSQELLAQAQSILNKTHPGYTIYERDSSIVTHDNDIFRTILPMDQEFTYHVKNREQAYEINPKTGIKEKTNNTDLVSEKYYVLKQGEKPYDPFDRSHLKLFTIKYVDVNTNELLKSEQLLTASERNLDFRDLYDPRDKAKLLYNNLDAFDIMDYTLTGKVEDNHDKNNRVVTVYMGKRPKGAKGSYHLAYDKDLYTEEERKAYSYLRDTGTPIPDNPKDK

Streptococcus [5] = assay: GAS UMAA2166 growth inhibition – luminescence, BacTiterGlo, counter-screen for streptokinase expression inhibitor project, dose response (AID 1915); format: functional, organism-based;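 note: potency for reduction of bacterial viability or growth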
[6] = system: Streptococcus sp. 'group A'; assay: Streptococcus pyogenes SK(-)GAS viability under kanamycin – luminescence, BacTiterGlo, confirmation, counter-screen for streptokinase expression inhibitor project, dose response (AID 1900); format: functional, organism-based
[7] = target: T2, Oxysterols receptor LXR-beta (Homo sapiens, UniProt P55055); format: functional, cell-based;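 note: agonist activity at LXR measured by a cell-based luminescence readout across a dose range, run as a counterscreen for daf-12 agonists; HEK293 cells with Gal4-LXR fusion and GAL4-driven luciferase reporter; potency for activation of Gal4-LXR reporter so compounds are agonists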
T2 sequence (P55055 whole entry): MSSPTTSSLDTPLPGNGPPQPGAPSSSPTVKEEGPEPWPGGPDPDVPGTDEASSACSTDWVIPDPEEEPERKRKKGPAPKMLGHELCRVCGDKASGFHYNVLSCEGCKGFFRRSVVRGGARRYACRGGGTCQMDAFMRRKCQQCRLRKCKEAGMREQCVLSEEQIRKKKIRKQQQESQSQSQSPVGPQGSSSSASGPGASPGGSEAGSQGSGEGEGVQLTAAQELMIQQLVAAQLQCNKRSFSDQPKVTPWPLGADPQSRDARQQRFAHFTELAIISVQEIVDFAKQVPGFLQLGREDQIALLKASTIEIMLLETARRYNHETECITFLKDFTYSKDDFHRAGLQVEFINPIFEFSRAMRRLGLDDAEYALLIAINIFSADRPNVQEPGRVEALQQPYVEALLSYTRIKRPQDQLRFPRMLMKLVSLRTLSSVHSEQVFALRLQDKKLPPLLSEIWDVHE

[8] = target: Neuropeptides B/W receptor type 1 (Homo sapiens, UniProt P48145); assay: Fluorescence-based dose response cell-based high throughput screening assay to identify antagonists of the G-protein coupled receptor 7 (GPR7). [Related pubchem assays: 1952 (Screening assay (GPR7 antagonists).), 1880 (Summary AID.)]; format: functional
[9] = target: Melanin-concentrating hormone receptor 1 (Homo sapiens, UniProt Q99705); assay: Fluorescence-based counterscreen for antagonists of the G-protein coupled receptor 7 (GPR7): cell-based high throughput dose response assay to identify antagonists of the melanin-concentrating hormone receptor 1 (MCHR1).; format: functional
[10] = target: T3, Alkaline phosphatase, tissue-nonspecific isozyme (Homo sapiens, UniProt P05186)
T3 sequence (P05186 whole entry): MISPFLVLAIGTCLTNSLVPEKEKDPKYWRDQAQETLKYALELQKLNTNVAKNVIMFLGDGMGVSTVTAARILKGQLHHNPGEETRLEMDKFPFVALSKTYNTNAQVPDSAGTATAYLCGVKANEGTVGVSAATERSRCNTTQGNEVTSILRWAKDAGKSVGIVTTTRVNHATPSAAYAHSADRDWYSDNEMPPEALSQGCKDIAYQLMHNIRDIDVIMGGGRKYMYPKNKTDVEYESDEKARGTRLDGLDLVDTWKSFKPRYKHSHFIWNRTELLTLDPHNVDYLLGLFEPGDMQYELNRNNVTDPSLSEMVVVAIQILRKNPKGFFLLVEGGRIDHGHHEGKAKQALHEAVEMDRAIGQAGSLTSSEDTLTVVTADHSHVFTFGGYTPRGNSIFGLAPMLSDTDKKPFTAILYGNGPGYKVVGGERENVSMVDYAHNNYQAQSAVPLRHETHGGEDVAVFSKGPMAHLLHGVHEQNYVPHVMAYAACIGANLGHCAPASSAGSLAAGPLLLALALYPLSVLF

[11] = target: T4, Eukaryotic translation initiation factor 2-alpha kinase 3 (Homo sapiens, UniProt Q9NZJ5); assay: Dose response cell-based high-throughput screening assay to measure PERK inhibition. [Related pubchem assays: 1416 ]; format: functional
[12] = target: T4, Eukaryotic translation initiation factor 2-alpha kinase 3; assay: Counterscreen assay for PERK inhibitors: Dose response cell-based high throughput screening assay to measure inhibition of PERK at 6 hours. [Related pubchem assays: 1522, 1416 ]; format: functional
[13] = target: T5, Neuropeptide Y receptor type 2 (Homo sapiens, UniProt P49146); assay: Fluorescence-based counterscreen for agonists of NPY-Y1: cell-based high-throughput dose response assay for agonists of NPY-Y2.; format: functional
T5 sequence (P49146 whole entry): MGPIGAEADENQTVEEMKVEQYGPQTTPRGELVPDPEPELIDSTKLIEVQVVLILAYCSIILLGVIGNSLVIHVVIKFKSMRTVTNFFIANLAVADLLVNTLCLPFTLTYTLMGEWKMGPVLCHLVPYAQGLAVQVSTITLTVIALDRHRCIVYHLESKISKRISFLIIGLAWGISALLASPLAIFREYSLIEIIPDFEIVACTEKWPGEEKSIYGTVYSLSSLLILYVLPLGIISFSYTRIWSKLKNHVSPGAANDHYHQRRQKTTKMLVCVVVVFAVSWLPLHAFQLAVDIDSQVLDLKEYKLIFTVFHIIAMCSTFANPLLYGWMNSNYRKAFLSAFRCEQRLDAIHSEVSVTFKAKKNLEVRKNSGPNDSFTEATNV

HEK293 = assay: Fluorescence-based counterscreen for potentiators or agonists of NPY-Y1: cell-based high-throughput dose response assay for inhibitors of cyclic nucleotide gated ion channel (CNGC) activity. In this assay, the parental HEK293 cell line transfected with a cyclic-nucleotide gated ion channel (CNGC)-based cAMP sensor is used to measure inhibition of isoproterenol-induced CNGC …; format: functional; conditions: Homo sapiens
[14] = M. tuberculosis growth inhibition, HTS (AID 449762); format: functional
Estrogen receptor = target: T6, Estrogen receptor (Homo sapiens, UniProt P03372);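 note: potency for inhibiting coactivator peptide recruitment to the receptor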
T6 sequence (P03372 whole entry): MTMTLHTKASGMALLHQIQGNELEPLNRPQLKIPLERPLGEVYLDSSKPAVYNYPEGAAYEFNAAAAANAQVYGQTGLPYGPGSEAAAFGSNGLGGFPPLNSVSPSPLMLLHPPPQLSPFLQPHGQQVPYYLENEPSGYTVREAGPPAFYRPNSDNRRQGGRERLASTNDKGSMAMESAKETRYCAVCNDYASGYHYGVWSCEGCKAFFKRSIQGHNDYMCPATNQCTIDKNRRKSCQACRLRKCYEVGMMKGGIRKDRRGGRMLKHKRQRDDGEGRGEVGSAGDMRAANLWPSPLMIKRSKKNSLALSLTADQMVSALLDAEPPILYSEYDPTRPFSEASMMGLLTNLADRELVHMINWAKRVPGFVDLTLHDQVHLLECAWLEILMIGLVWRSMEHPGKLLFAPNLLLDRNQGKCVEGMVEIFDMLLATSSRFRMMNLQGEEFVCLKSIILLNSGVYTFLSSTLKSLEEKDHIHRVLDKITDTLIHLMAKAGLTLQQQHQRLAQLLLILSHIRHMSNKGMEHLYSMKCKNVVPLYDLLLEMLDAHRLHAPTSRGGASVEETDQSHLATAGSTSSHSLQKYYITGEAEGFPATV

[15] = target: T7, Neuropeptide Y receptor type 1 (Homo sapiens, UniProt P25929); assay: Fluorescence-based dose response cell-based high-throughput screening assay for agonists of NPY-Y1. [Related pubchem assays: 1697 (Screening assay (NPY-Y1 agonists).), 1359 (Screening assay (NPY-Y2 potentiators or agonists).), 1304 (Screening assay (NPY-Y1 potentiators or agonists).), 1704 (Screening assay (CNGC inhibitors).), 1791 (Summary AID.)]; format: functional
T7 sequence (P25929 whole entry): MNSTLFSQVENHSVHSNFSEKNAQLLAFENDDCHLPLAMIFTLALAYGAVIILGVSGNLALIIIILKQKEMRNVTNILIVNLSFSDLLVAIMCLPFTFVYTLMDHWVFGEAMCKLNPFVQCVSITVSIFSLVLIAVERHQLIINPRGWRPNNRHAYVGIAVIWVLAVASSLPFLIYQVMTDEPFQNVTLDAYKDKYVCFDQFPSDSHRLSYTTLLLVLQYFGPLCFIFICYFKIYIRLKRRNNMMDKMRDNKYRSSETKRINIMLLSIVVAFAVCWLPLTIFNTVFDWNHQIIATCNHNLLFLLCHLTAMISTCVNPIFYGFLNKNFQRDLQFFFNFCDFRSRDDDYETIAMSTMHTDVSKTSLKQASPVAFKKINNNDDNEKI

Wee1-like protein kinase = Wee1-like protein kinase (Homo sapiens, UniProt P30291); assay: Dose Response Cell-based Assay for Inhibitors of Wee1 Degradation. [Related pubchem assays: 1410, 1321 ]; format: functional
[16] = target: G2/mitotic-specific cyclin-B1 (Homo sapiens, UniProt P14635); assay: Counterscreen assay for inhibitors of Wee1 degradation: dose response cell-based assay to identify inhibitors of cyclin B degradation. [Related pubchem assays: 1410, 1321 ]; format: functional
Cytochrome P450 2D6 = Cytochrome P450 2D6 (Homo sapiens, UniProt P10635); assay: qHTS Assay for Inhibitors and Substrates of Cytochrome P450 2D6. [Related pubchem assays: 410 ]; format: ADME; conditions: read-out: Potency
Cytochrome P450 3A4 = Cytochrome P450 3A4 (Homo sapiens, UniProt P08684); conditions: Potency;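 note: confirmatory qHTS run detecting inhibitors and substrates of CYP3A4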
Cytochrome P450 3A4, sequence (P08684 whole entry): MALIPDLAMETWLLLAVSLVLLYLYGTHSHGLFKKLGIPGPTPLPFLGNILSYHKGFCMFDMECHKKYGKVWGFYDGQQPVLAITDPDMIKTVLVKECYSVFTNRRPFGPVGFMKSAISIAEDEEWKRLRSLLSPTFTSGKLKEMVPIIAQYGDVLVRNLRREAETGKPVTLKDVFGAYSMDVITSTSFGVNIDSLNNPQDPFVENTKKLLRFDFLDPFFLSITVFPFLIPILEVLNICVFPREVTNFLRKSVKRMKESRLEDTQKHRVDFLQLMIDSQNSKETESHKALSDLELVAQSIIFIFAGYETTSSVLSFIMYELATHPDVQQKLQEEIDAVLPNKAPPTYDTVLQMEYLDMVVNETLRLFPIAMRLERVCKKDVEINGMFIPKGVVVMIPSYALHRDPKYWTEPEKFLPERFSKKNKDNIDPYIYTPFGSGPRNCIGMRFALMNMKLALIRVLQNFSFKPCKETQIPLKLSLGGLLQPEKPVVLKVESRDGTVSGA

T4 sequence (Q9NZJ5 whole entry): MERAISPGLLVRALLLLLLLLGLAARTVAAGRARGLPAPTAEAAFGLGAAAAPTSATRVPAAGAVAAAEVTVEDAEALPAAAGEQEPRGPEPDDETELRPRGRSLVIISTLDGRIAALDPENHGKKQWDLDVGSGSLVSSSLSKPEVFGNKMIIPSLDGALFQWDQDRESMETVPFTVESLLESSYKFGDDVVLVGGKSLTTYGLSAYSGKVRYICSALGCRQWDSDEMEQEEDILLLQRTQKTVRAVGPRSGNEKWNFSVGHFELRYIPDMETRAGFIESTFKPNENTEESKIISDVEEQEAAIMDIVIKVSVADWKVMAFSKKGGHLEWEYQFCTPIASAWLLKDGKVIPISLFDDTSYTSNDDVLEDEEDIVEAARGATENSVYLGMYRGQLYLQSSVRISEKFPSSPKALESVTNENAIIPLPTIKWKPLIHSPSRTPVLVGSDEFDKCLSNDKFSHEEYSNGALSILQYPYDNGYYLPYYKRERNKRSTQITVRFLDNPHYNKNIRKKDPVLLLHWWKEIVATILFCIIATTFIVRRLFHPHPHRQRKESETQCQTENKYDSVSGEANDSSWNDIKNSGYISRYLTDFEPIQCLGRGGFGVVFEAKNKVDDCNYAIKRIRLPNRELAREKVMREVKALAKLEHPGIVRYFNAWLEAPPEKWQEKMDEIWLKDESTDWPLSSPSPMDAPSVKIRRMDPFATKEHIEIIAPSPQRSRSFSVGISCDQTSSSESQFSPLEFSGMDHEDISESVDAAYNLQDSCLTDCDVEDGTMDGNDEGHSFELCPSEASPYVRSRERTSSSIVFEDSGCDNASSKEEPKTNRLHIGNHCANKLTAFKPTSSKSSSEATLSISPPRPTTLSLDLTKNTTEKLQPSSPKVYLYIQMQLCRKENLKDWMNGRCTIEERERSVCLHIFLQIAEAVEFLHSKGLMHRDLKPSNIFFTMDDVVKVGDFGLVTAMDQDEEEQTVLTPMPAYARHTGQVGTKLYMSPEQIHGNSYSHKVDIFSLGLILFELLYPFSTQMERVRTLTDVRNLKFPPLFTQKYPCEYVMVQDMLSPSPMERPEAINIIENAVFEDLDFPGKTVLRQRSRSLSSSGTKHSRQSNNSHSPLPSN
Cytochrome P450 2D6, sequence (P10635 whole entry): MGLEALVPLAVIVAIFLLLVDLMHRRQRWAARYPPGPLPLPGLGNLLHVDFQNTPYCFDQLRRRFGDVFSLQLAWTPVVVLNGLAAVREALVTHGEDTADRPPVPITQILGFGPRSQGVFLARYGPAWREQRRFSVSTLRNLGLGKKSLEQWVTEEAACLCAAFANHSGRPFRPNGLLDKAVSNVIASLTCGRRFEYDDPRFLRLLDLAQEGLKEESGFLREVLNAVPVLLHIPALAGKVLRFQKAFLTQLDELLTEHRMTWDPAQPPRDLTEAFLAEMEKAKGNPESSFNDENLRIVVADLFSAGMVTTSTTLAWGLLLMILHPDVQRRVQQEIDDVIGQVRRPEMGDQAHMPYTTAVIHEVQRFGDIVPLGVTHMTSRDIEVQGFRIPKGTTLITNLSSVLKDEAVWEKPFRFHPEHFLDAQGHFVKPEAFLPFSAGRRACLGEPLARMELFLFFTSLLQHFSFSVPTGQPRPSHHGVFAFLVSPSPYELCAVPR
Melanin-concentrating hormone receptor 1, sequence (Q99705 whole entry): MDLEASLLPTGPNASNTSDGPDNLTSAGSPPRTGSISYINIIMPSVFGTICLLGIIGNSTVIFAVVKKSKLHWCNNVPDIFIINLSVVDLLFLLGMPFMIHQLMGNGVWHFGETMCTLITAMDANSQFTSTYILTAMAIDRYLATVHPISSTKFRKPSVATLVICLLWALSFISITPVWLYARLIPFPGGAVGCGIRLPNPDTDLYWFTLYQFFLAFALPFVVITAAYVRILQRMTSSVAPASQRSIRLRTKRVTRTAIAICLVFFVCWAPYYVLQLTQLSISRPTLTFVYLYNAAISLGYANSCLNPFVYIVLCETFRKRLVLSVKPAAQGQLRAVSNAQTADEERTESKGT
Acyl-homoserine lactone acylase PvdQ, sequence (Q9I194 24-193 limits assumed): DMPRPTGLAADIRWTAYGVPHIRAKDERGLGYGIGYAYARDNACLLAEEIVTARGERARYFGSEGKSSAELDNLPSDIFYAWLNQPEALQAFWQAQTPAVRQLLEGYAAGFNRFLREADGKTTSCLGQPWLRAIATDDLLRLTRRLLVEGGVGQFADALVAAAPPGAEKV
Acyl-homoserine lactone acylase PvdQ, sequence (Q9I194 217-762 limits assumed): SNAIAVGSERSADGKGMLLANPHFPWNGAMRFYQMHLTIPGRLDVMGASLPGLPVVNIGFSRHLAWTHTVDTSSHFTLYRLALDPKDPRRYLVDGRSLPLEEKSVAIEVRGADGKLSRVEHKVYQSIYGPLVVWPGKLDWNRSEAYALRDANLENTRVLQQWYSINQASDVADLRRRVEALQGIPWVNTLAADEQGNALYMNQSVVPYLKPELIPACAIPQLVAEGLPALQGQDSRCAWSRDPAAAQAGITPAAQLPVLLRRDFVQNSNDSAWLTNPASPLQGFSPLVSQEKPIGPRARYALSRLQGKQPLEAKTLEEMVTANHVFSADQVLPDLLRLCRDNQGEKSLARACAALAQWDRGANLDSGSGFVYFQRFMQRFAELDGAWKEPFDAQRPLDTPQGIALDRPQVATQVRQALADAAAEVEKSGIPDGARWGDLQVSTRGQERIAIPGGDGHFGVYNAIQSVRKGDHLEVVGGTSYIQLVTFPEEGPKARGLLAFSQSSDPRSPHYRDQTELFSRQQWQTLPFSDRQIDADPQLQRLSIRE
G2/mitotic-specific cyclin-B1, sequence (P14635 whole entry): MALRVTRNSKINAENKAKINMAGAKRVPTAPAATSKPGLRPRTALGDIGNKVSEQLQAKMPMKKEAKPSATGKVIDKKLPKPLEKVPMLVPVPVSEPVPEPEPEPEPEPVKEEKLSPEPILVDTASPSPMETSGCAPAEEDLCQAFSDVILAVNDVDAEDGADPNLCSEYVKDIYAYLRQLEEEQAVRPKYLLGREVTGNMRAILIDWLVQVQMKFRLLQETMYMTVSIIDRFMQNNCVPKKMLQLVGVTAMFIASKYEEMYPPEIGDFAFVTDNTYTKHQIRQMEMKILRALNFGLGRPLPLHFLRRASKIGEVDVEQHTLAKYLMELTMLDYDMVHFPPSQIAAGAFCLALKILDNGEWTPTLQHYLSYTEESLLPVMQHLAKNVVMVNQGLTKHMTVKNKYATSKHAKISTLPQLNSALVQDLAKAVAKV
Neuropeptides B/W receptor type 1, sequence (P48145 whole entry): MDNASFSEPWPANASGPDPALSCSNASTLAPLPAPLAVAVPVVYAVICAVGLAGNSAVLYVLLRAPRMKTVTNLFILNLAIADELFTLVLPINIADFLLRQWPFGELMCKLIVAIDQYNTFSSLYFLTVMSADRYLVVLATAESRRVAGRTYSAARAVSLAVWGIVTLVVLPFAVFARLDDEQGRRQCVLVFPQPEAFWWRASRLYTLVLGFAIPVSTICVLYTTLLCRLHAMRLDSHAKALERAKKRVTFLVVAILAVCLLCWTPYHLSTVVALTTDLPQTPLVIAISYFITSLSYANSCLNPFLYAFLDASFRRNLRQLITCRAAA
Lysosomal acid glucosylceramidase, sequence (P04062 whole entry): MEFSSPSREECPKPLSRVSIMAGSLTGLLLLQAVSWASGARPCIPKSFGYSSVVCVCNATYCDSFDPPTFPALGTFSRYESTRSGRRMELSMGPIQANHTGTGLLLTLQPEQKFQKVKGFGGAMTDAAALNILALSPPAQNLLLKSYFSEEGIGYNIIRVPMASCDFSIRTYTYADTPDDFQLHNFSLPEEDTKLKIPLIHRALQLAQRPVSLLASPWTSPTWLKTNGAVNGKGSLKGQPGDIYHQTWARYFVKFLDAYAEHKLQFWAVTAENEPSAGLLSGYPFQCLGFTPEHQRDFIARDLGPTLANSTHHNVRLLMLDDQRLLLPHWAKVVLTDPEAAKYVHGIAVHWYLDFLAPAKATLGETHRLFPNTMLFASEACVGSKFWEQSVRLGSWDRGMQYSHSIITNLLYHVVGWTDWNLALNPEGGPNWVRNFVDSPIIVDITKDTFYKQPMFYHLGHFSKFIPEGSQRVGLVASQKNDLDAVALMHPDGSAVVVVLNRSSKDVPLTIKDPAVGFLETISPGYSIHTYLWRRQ
Peroxisome proliferator-activated receptor gamma, sequence (P37231 whole entry): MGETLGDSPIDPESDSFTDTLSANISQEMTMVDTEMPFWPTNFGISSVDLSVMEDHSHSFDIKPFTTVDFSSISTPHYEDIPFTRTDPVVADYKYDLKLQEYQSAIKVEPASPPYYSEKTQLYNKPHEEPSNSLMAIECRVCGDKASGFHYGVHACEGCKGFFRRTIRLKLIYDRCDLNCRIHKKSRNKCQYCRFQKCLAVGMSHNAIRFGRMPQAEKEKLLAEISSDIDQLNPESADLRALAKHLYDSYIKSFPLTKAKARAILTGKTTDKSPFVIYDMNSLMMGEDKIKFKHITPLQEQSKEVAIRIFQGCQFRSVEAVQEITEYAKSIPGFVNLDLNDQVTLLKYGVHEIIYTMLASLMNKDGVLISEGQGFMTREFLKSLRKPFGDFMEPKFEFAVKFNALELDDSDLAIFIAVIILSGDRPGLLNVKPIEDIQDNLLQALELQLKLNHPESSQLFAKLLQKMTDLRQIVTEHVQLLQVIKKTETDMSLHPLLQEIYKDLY

**Q.** Which EC50 [1] does the source give for `O=S(=O)(NCc1csc(-c2cccnc2)n1)c1ccc2c(c1)OCCO2` here?
**A.** Its EC50 is > 50 µM (not active).

**Q.** Which IC50 [2] does the source give for `O=C(O)CCN1C(=O)/C(=C/c2ccccc2Cl)SC1=S` here?
**A.** Its IC50 is 2 µM (active).

**Q.** For `O=[N+]([O-])c1ccc(N2CCSCC2)cc1`, which AC50 [3] is on record?
**A.** The AC50 was > 100 µM (inactive).

**Q.** For `CCOc1ccc(Cl)cc1S(=O)(=O)n1cnc2cc(C)c(C)cc21`, which EC50 (Streptococcus [4]) is on record?
**A.** Its EC50 is > 500 µM (not active).

**Q.** And the EC50 (Streptokinase A)?
**A.** The EC50 was 7.31 µM (active).

**Q.** And the EC50 (Streptococcus [5])?
**A.** Its EC50 is > 150 µM (not active).

**Q.** What about the EC50 [6] of the same molecule?
**A.** The EC50 was 23.8 µM (active).

**Q.** Which EC50 [7] does the source give for `CS(=O)(=O)c1ccc2nc(NC(=O)Nc3ccccc3F)sc2c1` here?
**A.** Its EC50 is > 67.5 µM (inactive).

**Q.** And the IC50 [8]?
**A.** Its IC50 is > 43.8 µM (not active).

**Q.** What about the IC50 [9] of the same molecule?
**A.** Its IC50 is > 43.8 µM (not active).

**Q.** For `CCCCNC(=O)CSc1nc2cc3c(cc2c(=O)n1CCC(=O)NCCc1ccc(OC)c(OC)c1)OCO3`, which EC50 [10] is on record?
**A.** The EC50 was > 100 µM (not active).

**Q.** With `CCCCOC(=O)C1C2C=C[C@]3(CN(CCCOC)C(=O)[C@H]13)O2` (some centres not stated) as the molecule, how does the EC50 [11] read?
**A.** Its EC50 is > 55.7 µM (not active).

**Q.** And the EC50 [12]?
**A.** Its EC50 is > 55.7 µM (not active).

**Q.** For `CCn1c(SCC(=O)Nc2ccc3c(c2)oc2ccccc23)nnc1-c1ccc(N)cc1`, which EC50 [13] is on record?
**A.** Its EC50 is 7.96 µM (active).

**Q.** And the IC50 (HEK293)?
**A.** Its IC50 is 2.88 µM (active).

**Q.** What about the IC50 [14] of the same molecule?
**A.** Its IC50 is > 100 µM (active).

**Q.** And the IC50 (Estrogen receptor)?
**A.** The IC50 was 11.7 µM (active).

**Q.** What about the EC50 [15] of the same molecule?
**A.** Its EC50 is 7.16 µM (active).

**Q.** Which EC50 (Wee1-like protein kinase) does the source give for `COc1ccc(Nc2oc(-c3ccc(OC)cc3)nc2C#N)cc1` here?
**A.** The EC50 was > 49.7 µM (not active).

**Q.** What about the EC50 [16] of the same molecule?
**A.** Its EC50 is > 49.7 µM (not active).

**Q.** For `COc1cccc2[nH]c(-c3ccccn3)nc12`, which AC50 (Cytochrome P450 2D6) is on record?
**A.** The AC50 was 1.58 µM (inconclusive).

**Q.** And the AC50 (Cytochrome P450 3A4)?
**A.** Its AC50 is 3.98 µM (inconclusive).
